In patent publication US20060167020A1, “Pyrazolopyrimidines as kinase inhibitors” (priority 2002, published 2006):
Counter-ions that a name gives are not always drawn.

What follows are compounds tested against GSK-3β (Homo sapiens, UniProt P49841) (assay: GSK3 kinase scintillation proximity assay (phosphorylation of biotinylated glycogen synthase peptide)). Conditions: 20 nM kinase, 2.5 uM ATP, 2.8 uM peptide substrate, 40 minutes at room temperature; pIC50 = -log IC50 in Molar.
GSK-3β, sequence (P49841 whole entry, species assumed): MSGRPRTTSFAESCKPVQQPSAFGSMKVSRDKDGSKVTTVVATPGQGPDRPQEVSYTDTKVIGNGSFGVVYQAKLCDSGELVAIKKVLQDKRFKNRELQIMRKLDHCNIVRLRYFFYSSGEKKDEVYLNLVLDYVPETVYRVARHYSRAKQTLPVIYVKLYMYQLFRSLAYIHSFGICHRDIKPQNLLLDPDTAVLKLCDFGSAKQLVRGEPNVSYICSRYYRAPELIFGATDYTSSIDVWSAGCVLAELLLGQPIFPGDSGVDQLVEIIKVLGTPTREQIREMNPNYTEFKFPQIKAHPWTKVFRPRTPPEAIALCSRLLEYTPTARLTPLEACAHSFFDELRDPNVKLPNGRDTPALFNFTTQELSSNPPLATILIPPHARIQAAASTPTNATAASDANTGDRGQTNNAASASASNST
Assay type: biochemical
Excerpt: The phosphorylated biotinylated peptide is then captured onto streptavidin coated scintillation proximity assay (SPA) beads from Amersham Technology, where the signal from the ^33P is amplified via the scintillant contained in the beads.
GSK-3β is commercially available or may be cloned and expressed in E coli using standard techniques to produce soluble, active protein. The production of active protein involves purification in two steps using Metal Chelate and Ion Exchange Chromatography. Protein eluting from Ion Exchange provides >90% pure product that may then be concentrated for use in high throughput screening.
The kinase was assayed at a concentration of 20 nM final in 100 mM HEPES, pH 7.2 containing 10 mM magnesium chloride, 0.1 mg/mL bovine serum albumin, 1 mM dithiothreitol, 0.3 mg/mL heparin, 2.8 uM peptide substrate, 2.5 uM ATP, and 0.2 uCi/well γ^33P]-ATP. After 40 minutes incubation at room temperature, the reaction was stopped by addition of 100 mM EDTA and […] in 100 mM HEPES, pH7.2 followed by an additional solution of diluted Streptavidin coated SPA beads in PBS, pH 7.2 to give a final concentration of 0.25 mg of beads per assay well in a 96-well microtiter plate.
10 mM stock solutions of the compounds of the invention in 100% DMSO are generated as a first step in the screening process. The second step involves the creation of dose response plates where these compounds are diluted 10-fold in 100% DMSO to 1 mM concentrations and subsequently serially diluted 3-fold in 100% DMSO across the plate by automated liquid handling such that the final top concentration of inhibitor is 0.033 mM in the 30 uL kinase assay. The third step involves the creation of the assay plates. This is achieved by transferring 1 uL of the compounds to assay plates by automated liquid handling. The fourth step is to perform the assay as described and count the resulting plates in the Packard TopCount NXT microplate scintillation and luminescence counter.
The final step is data acquisition and analysis where IC50 values are generated for each compound by normalizing curve data to the equation 100*(U1−C2)/(C1−C2) (where U1 is the cpm value, C2 is the background, and C1 is the maximum number of counts), then fitting the normalized data to the equation y=Vmax*(1−(x/(K+x))). The IC50 values were converted to pIC50 values, i.e., −log IC50 in Molar concentration. The data is expressed below in Table 1.
An IC50 of under 100 nM was found for `Fc1ccc(/C=N/Nc2ncnc3c2cnn3-c2cccc3[nH]cnc23)cc1` [Example 29, 4-Fluorobenzaldehyde [1-(1H-benzimidazol-4-yl)-1H-pyrazolo[3,4-d]pyrimidin-4-yl]hydrazone] in this work. An IC50 of under 100 nM was found for `CN(C)CCCNC(=O)c1ccc(/C=N/Nc2ncnc3c2cnn3-c2cccc3[nH]cnc23)cc1` [Example 32, 4-((E)-{[1-(1H-benzimidazol-4-yl)-1H-pyrazolo[3,4-d]pyrimidin-4-yl]hydrazono}methyl)-N-[3-(dimethylamino)propyl]benzamide] in this work. An IC50 of 100 to 1000 nM was found for `CN(C)CCNS(=O)(=O)c1ccc(/C=N/Nc2ncnc3c2cnn3-c2ccccn2)cc1` [Example 19, N-[2-(Dimethylamino)ethyl]-4-{(E)-[(1-pyridin-2-yl-1H-pyrazolo[3,4-d]pyrimidin-4-yl)hydrazono]methyl}benzenesulfonamide] in this work. An IC50 of under 100 nM was found for `CN(C)CCNS(=O)(=O)c1ccc(/C=N/Nc2ncnc3c2cnn3-c2nccs2)cc1` [Example 25, N-[2-(Dimethylamino)ethyl]-4-((E)-{[1-(1,3-thiazol-2-yl)-1H-pyrazolo[3,4-a]pyrimidin-4-yl]hydrazonol}methyl)benzenesulfonamide] in this work. An IC50 of 100 to 1000 nM was found for `CN(C)CCNC(=O)c1ccc(/C=N/Nc2ncnc3c2cnn3-c2ccccn2)cc1` [Example 21, N-[2-(Dimethylamino)ethyl]-4-{(E)-[(1-pyridin-2-yl-1H-pyrazolo[3,4-d]pyrimidin-4-yl)hydrazono]methyl}benzamide hydrochloride] in this work. An IC50 of 100 to 1000 nM was found for `C(=N\Nc1ncnc2c1cnn2-c1ccccn1)/c1cccnc1` [Example 13, Nicotinaldehyde (1-pyridin-2-yl-1H-pyrazolo[3,4-d]pyrimidin-4-yl)hydrazone] in this work. An IC50 of under 100 nM was found for `O=C(O)c1ccc(/C=N/Nc2ncnc3c2cnn3-c2cccc3[nH]cnc23)cc1` [Example 31, 4-((E)-{[1-(1H-benzimidazol-4-yl)-1H-pyrazolo[3,4-d]pyrimidin-4-yl]hydrazono}methyl)benzoic acid] in this work. An IC50 of under 100 nM was found for `COc1cccc(-n2ncc3c(N/N=C/c4ccc(C(=O)NCCS(C)(=O)=O)cc4)ncnc32)n1` [Example 9, 4-((E)-{[1-(6-methoxypyridin-2-yl)-1H-pyrazolo[3,4-d]pyrimidin-4-yl]hydrazono}methyl)-N-[2-(methylsulfonyl)ethyl]benzamide] in this work. An IC50 of under 100 nM was found for `Fc1ccc(/C=N/Nc2ncnc3c2cnn3-c2cccnc2)cc1` [Example 33, 4-Fluorobenzaldehyde (1-pyridin-3-yl-1H-pyrazolo[3,4-d]pyrimidin-4-yl)hydrazone] in this work. An IC50 of 100 to 1000 nM was found for `COc1cccc(-n2ncc3c(N/N=C/c4ccnc(Cl)c4)ncnc32)n1` [Example 4, 2-Chloroisonicotin aldehyde [1-(6-methoxypyridin-2-yl)-1H-pyrazolo[3,4-d]pyrimidin-4-yl]hydrazone] in this work. An IC50 of under 100 nM was found for `C(=NNc1ncnc2c1cnn2-c1cccc2[nH]cnc12)c1ccncc1` [Example 28, Isonicotinaldehyde [1-(1H-benzimidazol-4-yl)-1H-pyrazolo[3,4-d]pyrimidin-4-yl]hydrazone] in this work. An IC50 of 100 to 1000 nM was found for `C(=NNc1ncnc2c1cnn2-c1nccs1)c1cccnc1` [Example 23, Nicotinaldehyde [1-(1,3-thiazol-2-yl)-1H-pyrazolo[3,4-d]pyrimidin-4-yl]hydrazone] in this work. An IC50 of under 100 nM was found for `CS(=O)(=O)c1ccc(/C=N/Nc2ncnc3c2cnn3-c2cccc3[nH]cnc23)cc1` [Example 30, 4-(Methylsulfonyl)benzaldehyde [1-(1H-benzimidazol-4-yl)-1H-pyrazolo[3,4-d]pyrimidin-4-yl]hydrazone] in this work. An IC50 of under 100 nM was found for `COc1cccc(-n2ncc3c(N/N=C/c4ccc(S(=O)(=O)NCCN(C)C)cc4)ncnc32)n1` [Example 6, N-[2-(Dimethylamino)ethyl]-4-((E)-{[1-(6-methoxypyridin-2-yl)-1H-pyrazolo[3,4-d]pyrimidin-4-yl]hydrazono}methyl)benzenesulfonamide] in this work. An IC50 of 1000 to 10000 nM was found for `O=C(O)c1ccc(/C=N/Nc2ncnc3c2cnn3-c2ccccn2)cc1` [Example 20, 4-{(E)-[(1-pyridin-2-yl-1H-pyrazolo[3,4-d]pyrimidin-4-yl)hydrazono]methyl}benzoic acid] in this work. An IC50 of under 100 nM was found for `COc1cccc(-n2ncc3c(N/N=C/c4ccc(S(=O)(=O)NCCN5CCOCC5)cc4)ncnc32)n1` [Example 7, 4-((E)-{[1-(6-methoxypyridin-2-yl)-1H-pyrazolo[3,4-]pyrimidin-4-yl]hydrazono}methyl)-N-(2-morpholin-4-ylethyl)benzenesulfonamide] in this work. An IC50 of 1000 to 10000 nM was found for `CC(C)(C)OC(=O)N1CCC(/C=N/Nc2ncnc3c2cnn3-c2ccccn2)CC1` [Example 15, tert-Butyl 4-{(E)-[(1-pyridin-2-yl-1H-pyrazolo[3,4-d]pyrimidin-4-yl)hydrazono]methyl}piperidine-1-carboxylate] in this work. An IC50 of under 100 nM was found for `COc1cccc(-n2ncc3c(N/N=C/c4cccnc4)ncnc32)n1` [Example 2, Nicotinaldehyde [1-(6-methoxypyridin-2-yl)-1H-pyrazolo[3,4-d]pyrimidin-4-yl]hydrazone] in this work. An IC50 of under 100 nM was found for `COc1cccc(-n2ncc3c(N/N=C/c4ccc(C(=O)NCCN(C)C)cc4)ncnc32)n1` [Example 10, N[2-(Dimethylamino)ethyl]-4-((E)-{[1-(6-methoxypyridin-2-yl)-1H-pyrazolo[3,4-d]pyrimidin-4-yl]hydrazono}methyl)benzamide] in this work. An IC50 of under 100 nM was found for `C(=N\Nc1ncnc2c1cnn2-c1ccncc1)/c1ccncc1` [Example 26, Isonicotinaldehyde (1-pyridin-4-yl-1H-pyrazolo[3,4-d]pyrimidin-4-yl)hydrazone] in this work. An IC50 of 1000 to 10000 nM was found for `Nc1ccc(/C=N/Nc2ncnc3c2cnn3-c2ccccn2)cn1` [Example 17, 6-Aminonicotinaldehyde (1-pyridin-2-yl-1H-pyrazolo[3,4-d]pyrimidin-4-yl)hydrazone trifluoroacetate] in this work. An IC50 of 100 to 1000 nM was found for `CS(=O)(=O)CCNC(=O)c1ccc(/C=N/Nc2ncnc3c2cnn3-c2ccccn2)cc1` [Example 22, N-[2-(Methylsulfonyl)ethyl]-4-{(E)-[(1-pyridin-2-yl-1H-pyrazolo[3,4-d]pyrimidin-4-yl)hydrazono]methyl}benzamide] in this work. An IC50 of under 100 nM was found for `COc1cccc(-n2ncc3c(N/N=C/c4ccc(C(=O)NCCCN5CCCC5)cc4)ncnc32)n1` [Example 12, 4-((E)-{[1-(6-methoxypyridin-2-yl)-1H-pyrazolo[3,4-d]pyrimidin-4-yl]hydrazono}methyl)-N-(3-pyrrolidin-1-ylpropyl)benzamide] in this work. An IC50 of 100 to 1000 nM was found for `COc1cccc(-n2ncc3c(N/N=C/c4ccc(N(C)C)nc4)ncnc32)n1` [Example 3, 6-(Dimethylamino)nicotinaldehyde [1-(6-methoxypyridin-2-yl)-1H-pyrazolo[3,4-d]pyrimidin-4-yl]hydrazone] in this work. An IC50 of 100 to 1000 nM was found for `COc1cccc(-n2ncc3c(N/N=C/c4ccc(C(=O)O)cc4)ncnc32)n1` [Example 8] in this work. An IC50 of under 100 nM was found for `COc1cccc(-n2ncc3c(N/N=C/c4ccc(Cl)nc4)ncnc32)n1` [Example 5, 6-Chloronicotinaldehyde [1-(6-methoxypyridin-2-yl)-1H-pyrazolo[3,4-d]pyrimidin-4-yl]hydrazone] in this work. An IC50 of under 100 nM was found for `COc1cccc(-n2ncc3c(N/N=C/c4ccc(C(=O)NCCCN(C)C)cc4)ncnc32)n1` [Example 11, N-[3-(Dimethylamino)propyl]-4-((E)-{[1-(6-methoxypyridin-2-yl)-1H-pyrazolo[3,4-a]pyrimidin-4-yl]hydrazono}methyl)benzamide] in this work. An IC50 of 1000 to 10000 nM was found for `CN(C)c1ccc(/C=N/Nc2ncnc3c2cnn3-c2ccccn2)cn1` [Example 18, 6-(Dimethylamino)nicotinaldehyde (1-pyridin-2-yl-1H-pyrazolo[3,4-d]pyrimidin-4-yl)hydrazone] in this work. An IC50 of under 100 nM was found for `COc1cccc(-n2ncc3c(N/N=C/c4ccncc4)ncnc32)n1` [Example 1, Isonicotinaldehyde [1-(6-methoxypyridin-2-yl)-1H-pyrazolo[3,4-d]pyrimidin-4-yl]hydrazone] in this work. An IC50 of 1000 to 10000 nM was found for `C(=N\Nc1ncnc2c1cnn2-c1ccccn1)/c1ccncc1` [Example 14, Isonicotinaldehyde (1-pyridin-2-yl-1H-pyrazolo[3,4-d]pyrimidin-4-yl)hydrazone] in this work. An IC50 of under 100 nM was found for `C(=NNc1ncnc2c1cnn2-c1nccs1)c1ccncc1` [Example 24, Isonicotinaldehyde [1-(1,3-thiazol-2-yl)-1H-pyrazolo[3,4-d]pyrimidin-4-yl]hydrazone] in this work.
